Experiments:
Olfr544 = experiment: p-CREB/CREB western blotting in Hepa1c1c-7 cells, normal and Olfr544 knockdown; type: cell-based, mouse
Excerpt: To more clearly confirm whether an AzA acts as an Olfr544 ligand, an Olfr544 knockdown cell line was constructed using a vector including shRNA, and protein expression levels of normal cells and knockdown cells were compared by performing an experiment as follows. To construct an Olfr544 knockdown cell line, particularly, an oligonucleotide (top strand [SEQ ID NO: 1]: 5′-[…]-ACAGTGAG-3′) encoding an Olfr544-targeted shRNA hairpin sequence or an oligonucleotide (top strand [SEQ ID NO: 2]: 5′-[…]-3′) encoding non-targeting scrambled shRNA hairpins were inserted into an shRNA cloning site of a pENTR/U6 vector using a BLOCK-iT U6 RNAi entry vector kit (Invitrogen). Subsequently, Hepa1c1c-7 or 3T3-L1 cells were seeded on a 6-well plate and transfected with 2.5 μg of Olfr544 shRNA or scrambled shRNA using 10 μL Lipofectamine 2000 (Invitrogen) for 48 hours, thereby constructing an Olfr544 knockdown cell line. […]
To confirm whether an Olfr544 protein was expressed, protein fractions (cell membrane protein, cytosol protein) and total proteins (whole protein extract), which were extracted by the method of Example 2-3, were quantified by a Bradford method. […] The expression level of each gene was standardized using β-actin or GAPDH expression, and the comparison of the contents of protein bands of western blots was quantified and digitized using software (Gel-Pro Analyzer 4.0). […]

[1] = system: 3T3-L1 cells stimulated by LPS; experiment: IL-6 and TNF-α gene expression (qPCR) in LPS-treated 3T3-L1 adipose cells; type: cell-based, mouse; settings: LPS-treated 3T3-L1 cells differentiated into adipose cells, compared with control group
Protocol: 3T3-L1 cells, mouse pre-adipose cells were purchased from the Korean Cell Line Bank (Seoul, Korea). The 3T3-L1 cells were cultured in Dulbecco's modified Eagle's medium (DMEM) supplemented with 10% heat-inactivated bovine calf serum (Gibco, Grand Island, N.Y., USA) and 1% PEST under 5% CO2 at 37° C. The 3T3-L1 pre-adipose cells were seeded on a 6-well plate at 1×10^6 cells/well to differentiate into adipose cells, and cultured to a density of 100%. After 2 days, the cultured 3T3-L1 pre-adipose cells were incubated in DMEM containing 10% fetal bovine serum (FBS) and an MDI solution (0.5 mM IBMX, 0.5 μM dexamethasone and 10 μg/mL insulin) for 3 days. Subsequently, the treated cells were cultured in DMEM containing 10% FBS and 10 μg/mL insulin, and the formation of lipid droplets in cells and the degree thereof were confirmed, and based on this, the differentiation into adipose cells was confirmed. To confirm the expression of IL-6 and TNF-α genes, qRT-PCR was performed by the same methods described in Examples 7-4 and 7-5.

ob/ob mouse = experiment: Fatty liver inhibitory effect in ob/ob mouse; type: in vivo; settings: 60% high-fat diet, AzA 50 mg/kg oral, 6 weeks
Protocol: A 7-week-old male fatty liver model ob/ob mouse was purchased from Central Laboratory Animal Inc. to be used in an experiment. An AzA was orally administered at 50 mg/kg of body weight along with a 60% high-fat diet (HFD) for 6 weeks. As the experiment progresses, body weight was measured once a week, and food intake was measured […] on the last week. The concentration of triglycerides in liver tissue was measured by homogenizing liver tissue of a mouse in 600 μL of acetone (Daejung, Korea), storing the homogenate at 4° C. for 24 hours, and obtaining a fat part by centrifugation at 12000 rpm for 10 minutes. The fat part was dried, dissolved in 95% ethanol, quantified using a Cobas C11 autoanalyzer (Roche, Basel, Switzerland) and normalized with a liver weight. A fatty acid oxidation rate was measured and analyzed by the method of Example 4-4 described above.

Q: With `O=C(O)CCCCCCCC(=O)O` [AzA, nonanedioic acid] as the compound, how does the “increase in p-CREB/CREB ratio” value (Olfr544; Hepa1c1c-7 cells with Olfr544 knockdown by shRNA transfection) read?
A: not observed

Q: What about the p-CREB/CREB ratio (Olfr544; Hepa1c1c-7 cells, AzA-treated group) of the same compound?
A: significantly increased

Q: What about the IL-6 gene expression [1] of the same compound?
A: significantly decreased

Q: What about the “expression of PPARα and a target gene thereof (Hmgcs2) in liver tissue” value (ob/ob mouse) of the same compound?
A: significantly increased

Q: And the “triglyceride concentration in liver tissue” value (ob/ob mouse)?
A: reduced

Q: And the body weight (ob/ob mouse; compared with control group)?
A: decreased

— patent US10786475B2, “Method for preventing, treating, or improving fatty liver by administering effective amounts of azelaic acid to a subject” (Korea University Research and Business Foundation, priority 2018, dated 2020)
